Results reported in patent US20250100993A1, “2-SUBSTITUTED THIAZOLE HSD17B13 INHIBITORS AND USES THEREOF” (Inipharm, Inc., priority 2022, published 2025).

Tests used:
Format in all cases: biochemical
[1] = target: HSD17B14 (Homo sapiens (Human), UniProt Q9BPX1); test: LC/MS estrone detection assay for HSD17B14 activity (estradiol to estrone); details: selectivity for HSD17B13 over HSD17B14
Procedure: The liquid chromatography/mass spectrometry (LC/MS) estrone detection assay monitors the conversion of estradiol to estrone by HSD17B14. This assay was undertaken in a 96 well plates (Eppendorf deep well), in an 80 μl reaction volume containing: 8 μM of estradiol (E2; Cayman); 4 mM NAD+(Sigma); 120 nM HSD17B14 enzyme (in-house E. coli expressed His-tagged, purified, soluble protein); 1M potassium phosphate buffer pH 7.4, and 1.2% vehicle (DMSO). Reactions were incubated for 2 hours at 37° C. Estradiol (E2) conversion to estrone (E1) was quantitated by LC-MS/MS based analyte detection for E1 using LCMS grade reagents.
Reactions were terminated by the addition of two volumes of acetonitrile (MeCN; LCMS grade) containing deuterated (D4)-E1 used as internal standard (Clear Synth; 500 ng/mL final concentration). Samples were applied to pre-prepared Bond Elut-C18 extraction cartridges (3 mL; Agilent). The cartridges were washed with 1.5 mL water followed by 1.5 mL 5% aqueous methanol, and dried for 5 minutes under vacuum. They were then eluted with 4.5 mL MeCN. The eluates were dried under nitrogen and re-suspended in 200 μL of 60% methanol (LCMS grade) before submission for analysis. Standard curves of E2 and E1 in 4% DMSO were included for quantification.
Analysis of samples was performed on a XBridge BEH C18 column (Waters) using 0.1% Diethyl Amine in MeCN (mobile phase A) and 0.1% Diethyl Amine in milli-Q water (mobile phase B) in a 3 min gradient from 0-25% B. Analytes were detected in negative mode using MRM analysis, with E2 having a RT of 1.89 min and E1 having a RT of 2.07 min. Activity of the enzyme in the absence of NAD+ was used to evaluate specificity of conversion. Enzyme activity in the presence of test samples was expressed as a percentage of the uninhibited enzyme in the presence of 1.2% DMSO vehicle only, and plotted versus inhibitor concentration. Non-linear regression was performed using a four-parameter logistic model and GraphPad Prism software. All assessments were undertaken in duplicate evaluations, which were pooled during the extraction process and subsequently injected as duplicates for LC-MS/MS analysis.

[2] = target: HSD17B13 (Homo sapiens (Human), UniProt Q7Z5P4); test: LC/MS estrone detection assay for HSD17B13 activity (estradiol to estrone); details: estradiol substrate, LCMS; read-out: HSD17B13 Inhibition_Estradiol Substrate_LCMS: Ki
HSD17B13, sequence (Q7Z5P4 20-300): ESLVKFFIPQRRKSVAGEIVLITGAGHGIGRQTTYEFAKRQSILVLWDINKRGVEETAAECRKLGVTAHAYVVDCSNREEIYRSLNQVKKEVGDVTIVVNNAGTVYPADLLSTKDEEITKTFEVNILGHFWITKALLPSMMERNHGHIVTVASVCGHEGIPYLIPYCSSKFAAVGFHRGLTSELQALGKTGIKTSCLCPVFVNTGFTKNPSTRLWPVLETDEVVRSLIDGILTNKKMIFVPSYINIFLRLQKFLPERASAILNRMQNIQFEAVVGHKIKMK
Summary of the method: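 His-tagged E. coli-expressed enzyme (30 nM) with 4 μM estradiol and 6 mM NAD+ in potassium phosphate pH 7.4, 0.5% DMSO, 2 h at 26.5° C. Estrone formation quantified by LC-MS/MS against D4-estrone standard; activity as % of uninhibited, four-parameter fit, duplicates.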

[3] = target: HSD17B2 (Homo sapiens (Human), UniProt P37059); test: HSD17B2 activity via detection of NADH product (NAD-Glo luminescence); details: selectivity for HSD17B13 over HSD17B2
HSD17B2, sequence (P37059 whole entry): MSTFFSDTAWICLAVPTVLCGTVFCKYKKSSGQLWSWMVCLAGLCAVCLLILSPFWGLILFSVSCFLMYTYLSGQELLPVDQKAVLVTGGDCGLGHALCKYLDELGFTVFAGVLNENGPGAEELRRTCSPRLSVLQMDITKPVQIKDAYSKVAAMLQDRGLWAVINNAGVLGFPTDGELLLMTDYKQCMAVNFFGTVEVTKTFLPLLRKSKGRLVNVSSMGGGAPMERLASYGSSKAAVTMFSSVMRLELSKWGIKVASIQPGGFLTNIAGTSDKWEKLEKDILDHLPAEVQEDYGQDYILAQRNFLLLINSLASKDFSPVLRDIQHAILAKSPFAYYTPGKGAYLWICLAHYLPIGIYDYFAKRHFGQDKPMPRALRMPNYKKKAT
Procedure: The fluorescence based detection assay monitors the conversion of the co-factor NAD^+ to NADH, which occurs coincident with the conversion of estradiol to estrone by HSD17B2. These assays were performed in 384 well plates (Greiner V-shape PP-microplate). The 20 μl reaction volume contained: 0.7 μM estradiol (E2); 6 mM NAD^+ (Sigma); 250 nM HSD17B2 enzyme (Origene; Cat #TP303293); 0.25 M potassium phosphate buffer pH 7.4, 0.75% vehicle (DMSO). Reactions were incubated for 2 hours at 37° C., and the reaction was stopped by freezing the reaction plates at −80° C. Zero time samples were frozen immediately.
The conversion of NAD^+ to NADH was quantitated using NAD-Glo kits (Promega; Cat #G9062) according to the manufacturers' instructions. A volume of 15 μL of enzyme reaction mixture was added to 15 μL of reconstituted Glo reagent, and the plates were incubated for 30 minutes at room temperature. Luminescence was quantitated on a Tecan Spark Reader®. A standard curve of NADH ([…]) in potassium phosphate buffer pH 7.4/1% DMSO was run on each plate.
Activity of the enzyme in the absence of E2 was used to evaluate specificity of conversion. Enzyme activity in the presence of test samples was expressed as a percentage of the uninhibited enzyme in the presence of 1% DMSO vehicle only, and was plotted versus inhibitor concentration. Non-linear regression was performed using a four-parameter logistic model and GraphPad Prism software. All assessments were undertaken in duplicate evaluations.

HSD17B14, sequence (Q9BPX1 whole entry): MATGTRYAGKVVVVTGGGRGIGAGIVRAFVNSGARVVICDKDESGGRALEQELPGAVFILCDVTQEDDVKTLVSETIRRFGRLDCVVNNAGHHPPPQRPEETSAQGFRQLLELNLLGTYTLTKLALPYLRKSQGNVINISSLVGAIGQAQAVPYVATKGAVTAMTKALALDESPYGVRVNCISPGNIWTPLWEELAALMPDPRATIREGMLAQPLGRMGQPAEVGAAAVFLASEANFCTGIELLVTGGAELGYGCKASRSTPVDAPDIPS

HSD17B14 fold selectivity [1] [fold] | Ki [2] [µM] | HSD17B2 fold selectivity [3] [fold] | Compound
>142 | ≤ 0.05 |  | O=C(Nc1sc(-c2cnccn2)nc1C(=O)NCc1ccccc1C(F)(F)F)c1cc(Cl)c(O)c(Cl)n1 [Example 101]
>180 | 0.05 to 0.1 | 10 | O=C(Nc1sc(N2CCS(=O)(=O)CC2)nc1C(=O)NCc1ccccc1C(F)(F)F)c1cc(Cl)c(O)c(Cl)n1 [Example 78, 5-(4,6-dichloro-5-hydroxypicolinamido)-2-(1,1-dioxidothiomorpholino)-N-(2-(trifluoromethyl)benzyl)thiazole-4-carboxamide]
>397 | ≤ 0.05 | 64 | O=C(Nc1sc(-c2cccnc2)nc1C(=O)NCc1ccccc1C(F)(F)F)c1cc(Cl)c(O)c(Cl)c1 [Example 61]
>855 | ≤ 0.05 | 115 | O=C(Nc1sc(-c2ccccc2F)nc1C(=O)NCc1ccccc1C(F)(F)F)c1cc(F)c(O)c(Cl)c1 [Example 64]
>797 | ≤ 0.05 | 107 | O=C(Nc1sc(-c2cncc(F)c2)nc1C(=O)NCc1ccccc1C(F)(F)F)c1cc(F)c(O)c(Cl)c1 [Example 90]
>646 | ≤ 0.05 | 175 | CS(=O)(=O)c1ccc(-c2nc(C(=O)NCc3ccccc3C(F)(F)F)c(NC(=O)c3cc(Cl)c(O)c(Cl)n3)s2)cc1 [Example 73]
688 | ≤ 0.05 |  | O=C(Nc1sc(-c2ccccc2Cl)nc1C(=O)NCc1ccccc1C(F)(F)F)c1cc(F)c(O)c(Cl)c1 [Example 89]
 | 0.05 to 0.1 | 48 | O=C(Nc1sc(-c2cncnc2)nc1C(=O)NCc1ccccc1C(F)(F)F)c1cc(Cl)c(O)c(Cl)n1 [Example 68]
>843 | ≤ 0.05 |  | O=C(Nc1sc(-c2cnccn2)nc1C(=O)NCc1ccccc1C(F)(F)F)c1cc(Cl)c(O)c(Cl)c1 [Example 100]
 | ≤ 0.05 | 513 | O=C(Nc1sc(-c2ccccc2Cl)nc1C(=O)NCc1ccccc1C(F)(F)F)c1cc(Cl)c(O)c(Cl)n1 [Example 67]
>2000 | ≤ 0.05 | 985 | N#Cc1cccc(-c2nc(C(=O)NCc3ccccc3C(F)(F)F)c(NC(=O)c3cc(F)c(O)c(Cl)c3)s2)c1 [Example 96]
 | ≤ 0.05 | 53 | O=C(Nc1sc(C2=CCCCC2)nc1C(=O)NCc1ccccc1C(F)(F)F)c1cc(Cl)c(O)c(Cl)n1 [Example 88]
253 | ≤ 0.05 |  | CC(NC(=O)c1nc(-c2ccccc2)sc1NC(=O)c1cc(Cl)c(O)c(Cl)n1)c1ccccc1C(F)(F)F (stereo not drawn) [Example 99]
76 | 0.05 to 0.1 | 24 | CS(=O)(=O)c1ccccc1-c1nc(C(=O)NCc2ccccc2C(F)(F)F)c(NC(=O)c2cc(Cl)c(O)c(Cl)c2)s1 [Example 91]
357 | ≤ 0.05 | 444 | CS(=O)(=O)c1ccc(-c2nc(C(=O)NCc3ccccc3C(F)(F)F)c(NC(=O)c3cc(Cl)c(O)c(Cl)c3)s2)cc1 [Example 104]
>331 | ≤ 0.05 |  | O=C(Nc1sc(C2CC2)nc1C(=O)NCc1ccccc1C(F)(F)F)c1cc(Cl)c(O)c(Cl)n1 [Example 59, 2-cyclopropyl-5-(4,6-dichloro-5-hydroxypicolinamido)-N-(2-(trifluoromethyl)benzyl)thiazole-4-carboxamide]
>1640 | ≤ 0.05 | 2150 | N#Cc1cccc(-c2nc(C(=O)NCc3ccccc3C(F)(F)F)c(NC(=O)c3cc(Cl)c(O)c(Cl)c3)s2)c1 [Example 95]
 | ≤ 0.05 | 204 | O=C(Nc1sc(-c2ccccc2)nc1C(=O)NCc1ccccc1C(F)(F)F)c1cc(Cl)c(O)c(Cl)c1 [Example 62]
>215 | 0.05 to 0.1 | 44 | CS(=O)(=O)c1ccccc1-c1nc(C(=O)NCc2ccccc2C(F)(F)F)c(NC(=O)c2cc(Cl)c(O)c(Cl)n2)s1 [Example 92]
>980 | ≤ 0.05 |  | O=C(Nc1sc(-c2ccccc2F)nc1C(=O)NCc1ccccc1C(F)(F)F)c1cc(Cl)c(O)c(Cl)n1 [Example 60, 5-(4,6-dichloro-5-hydroxypicolinamido)-2-(2-fluorophenyl)-N-(2-(trifluoromethyl)benzyl) thiazole-4-carboxamide]
928 | ≤ 0.05 |  | CS(=O)(=O)c1cccc(-c2nc(C(=O)NCc3ccccc3C(F)(F)F)c(NC(=O)c3cc(Cl)c(O)c(Cl)n3)s2)c1 [Example 98]
 | 0.05 to 0.1 | 36 | Cn1cc(-c2nc(C(=O)NCc3ccccc3C(F)(F)F)c(NC(=O)c3cc(Cl)c(O)c(Cl)n3)s2)cn1 [Example 66]
>1850 | ≤ 0.05 |  | CC(NC(=O)c1nc(-c2cccnc2)sc1NC(=O)c1cc(Cl)c(O)c(Cl)n1)c1ccccc1C(F)(F)F (stereo not drawn) [Example 103]
>1230 | ≤ 0.05 |  | CC(NC(=O)c1nc(-c2cccnc2)sc1NC(=O)c1cc(Cl)c(O)c(Cl)c1)c1ccccc1C(F)(F)F (stereo not drawn) [Example 102]
>1250 | ≤ 0.05 | 1270 | CN(C)Cc1ccc(F)c(-c2nc(C(=O)NCc3ccccc3C(F)(F)F)c(NC(=O)c3cc(F)c(O)c(Cl)c3)s2)c1 [Example 94]
 | ≤ 0.05 | 192 | O=C(Nc1sc(-c2ccccc2F)nc1C(=O)NCc1ccccc1C(F)(F)F)c1cc(Cl)c(O)c(Cl)c1 [Example 63]
 | ≤ 0.05 | 107 | O=C(Nc1sc(-c2ccncc2)nc1C(=O)NCc1ccccc1C(F)(F)F)c1cc(Cl)c(O)c(Cl)n1 [Example 70]
772 | ≤ 0.05 |  | CS(=O)(=O)c1cccc(-c2nc(C(=O)NCc3ccccc3C(F)(F)F)c(NC(=O)c3cc(Cl)c(O)c(Cl)c3)s2)c1 [Example 97]
 | ≤ 0.05 | 225 | O=C(Nc1sc(-c2ccccc2Cl)nc1C(=O)NCc1ccccc1C(F)(F)F)c1cc(Cl)c(O)c(Cl)c1 [Example 65]
